Data published in paper PMC12071598, “Piperazine-Substituted Pyranopyridines Exhibit Antiproliferative Activity and Act as Inhibitors of HBV Virion Production” (International Journal of Molecular Sciences, 2025).
Converted amounts (≈) assume the structure as drawn. Read-outs that look alike come from different tables or passages of the source.

Assays:
[1] = system: K562; parameters: method as in PMID 22677031; settings: leukemic cell lines (including K562) ref 57; cited from earlier work
[2] = system: HeLa; experiment: Antiproliferative activity, MTT assay, HeLa; type: cell-based; settings: Homo sapiens, HeLa cervix carcinoma, 72 h
[3] = system: SH-SY5Y; experiment: Antiproliferative activity, crystal violet staining, SH-SY5Y; type: cell-based; settings: Homo sapiens, SH-SY5Y neuroblastoma, 72 h
[4] = system: hepatitis B virus (HBV); experiment: microbe, parasite or virus in culture; type: cell-based; settings: Hepatitis B virus, 144 h
[5] = system: NDV; experiment: microbe, parasite or virus in culture; type: cell-based, Newcastle disease virus; settings: avian paramyxovirus 1, 48 h, read-out: NDV IC50, µM
[6] = system: SARS-CoV-2; experiment: microbe, parasite or virus in culture; type: cell-based; settings: for IC50: Severe acute respiratory syndrome coronavirus 2, Vero C1008, read-out: SARS-CoV-2 IC50, µM
[7] = system: Influenza A virus; experiment: microbe, parasite or virus in culture; type: cell-based, influenza A virus (H1N1)
[8] = system: DU145; experiment: Antiproliferative activity, MTT assay, DU145; type: cell-based; settings: Homo sapiens, DU-145, DU145 prostate carcinoma, 72 h
[9] = system: Nrf2/ARE pathway; experiment: Status of Nrf2/ARE pathway, real-time RT-PCR in A549 cells; type: cell-based; settings: A549, 10 µM, three days
Experimental: Increased ROS production is often counteracted by the induction of antioxidant enzymes, many of which are controlled by the Nrf2 transcription factor [49]. So, we analyzed if the compounds could have activated this antioxidant defense system.
A possible effect of the least-toxic 3 compounds (DO11-37, DO11-45, and DO11-47) on the status of Nrf2/ARE pathway was analyzed by quantification of expression of Nrf2 and Nrf2-dependend genes using real-time PCR analysis. A549 cells were seeded in 6-well plates at a density of 3.09 × 10^5 cells/well in DMEM-F12 media supplemented with FBS and glutamine and treated with 10 µM compounds for three days. Next, total RNA was isolated using CleanRNA standard kit (Evrogen) with subsequent treatment with DNAseI (Roche, Basel, Switzerland), and 2 µg of RNA from each sample was reverse-transcribed using random hexamer primer and mint reverse transcriptase according to manufacturer’s protocol and subjected to real-time PCR as described previously using primers listed in the Table 5.

[10] = system: HSV-1; experiment: microbe, parasite or virus in culture; type: cell-based, herpes simplex virus type 1; settings: Human alphaherpesvirus 1, 48 h, read-out: HSV-1 IC50, µM
[11] = Cytotoxicity by MTS assay in MDCK cells; type: cell-based; settings: dog, read-out: Influenza A Virus CC50
Experimental: Production of influenza A virus (H1N1) stock and its infection of MDCK cells, as well as infection of Vero E6 cells with SARS-CoV-2, were described previously. Cytotoxicity of the compounds towards MDCK and VeroE6 cells was assessed by seeding 18,000 cells/well of […] plates in 0.1 mL DMEM, treating with the compounds for 66 h, and measuring cell viability by MTS assay. As positive controls, oseltamivir and N-hydroxicytidine were used (obtained from Sigma).
The compounds were added at non-toxic concentrations in serum-free DMEM to the respective cells; one hour later, the serial 10-fold dilutions of influenza virus or SARS-CoV-2 were added in serum-free medium, and antiviral activity was determined by the reduction in the infectious titer of the virus by cytopathic action (CPE). Calculation of 50% cytotoxic concentration (CC50) and 50% effective concentration (IC50) was performed by standard methods using Microsoft Excel 5.0 and GraphPad Prism 8 (GraphPad Software Inc., Boston, MA, USA).

[12] = system: A549; experiment: Antiproliferative activity, MTT assay, A549; type: cell-based; settings: Homo sapiens, A549 lung carcinoma, 72 h
[13] = system: PV1; experiment: microbe, parasite or virus in culture; type: cell-based, poliovirus type 1; settings: Enterovirus C, 48 h, read-out: PV1 IC50, µM
[14] = system: K562; experiment: Antiproliferative activity, MTT assay, K562; type: cell-based; settings: Homo sapiens, K562 chronic myeloid leukemia, 72 h
[15] = system: VV; experiment: microbe, parasite or virus in culture; type: cell-based; settings: Orthopoxvirus vaccinia, 48 h, read-out: VV IC50, µM
[16] = system: HepaRG; experiment: Cytotoxicity towards non-tumor differentiated HepaRG cells, MTT; type: cell-based, human; settings: concentration decreasing number of viable cells by 50%; for IC50: Homo sapiens
[17] = system: H1299 cells; experiment: Lysosome accumulation, LysoGreen in H1299 cells; type: cell-based; settings: H1299, 72 h
Experimental: (§1) H1299 cells were seeded at 750 cells/well density in 96-well plate, treated with drugs for 72 h and then stained with 1 ug/mL Hoechst-33342 (Lumiprobe, Moscow, Russia), 100 nM TMRE (Lumiprobe, Russia) potential-dependent mitochondria stain, 100 nM LumiTracker LysoGreen (Lumiprobe, Russia) stain for acidic lysosomes, and 0.33 ug/mL Tubulin Tracker Deep Red (Invitrogen, USA). Cells were stained at 37 °C for 30 min with all stains, except for LysoGreen, which was added 5 min before imaging. Cells were washed once and imaged in DMEM with low autofluorescence (BioinnLabs, Rostov na Donu, Russia) with Leica DMI8 automated microscope (Wetzlar, Germany). Fluorescent imaging was performed using 10× objective with the following parameters: for Hoechst-33342 excitation 325–375 nm and emission 435–485 nm, LysoGreen 460–500/512–542 nm, TMRE 541–551/565–605 nm, and Tubulin Tracker 590–650/662–738 nm. For nuclei segmentation, we applied cyto3 model from Cellpose v3 [42] to Hoechst-33342 images, and cell cytoplasm was segmented using merged TMRE and Tubulin Tracker images with Sauvola propagation method in CellProfiler v4.2 [43]. Integrated intensity of TMRE and LysoGreen fluorescence for each cell were calculated using CellProfiler. […] Experiments were repeated two independent times, and 4 random images were recorded each time.

[18] = system: H1299 cells; experiment: Cell death in H1299 cells, NucView 488 caspase 3/7 and 7-AAD staining; type: cell-based; settings: H1299, 72 h; 2.5 and 5 µM DO11-46 or 5 and 10 µM DO11-48
Experimental: To investigate the mechanism of the cytotoxic action of piperazine-substituted pyranopyridines, we evaluated two compounds, namely, DO11-46 and DO11-48, that acted in submicromolar concentrations. The first step was to which type of cell death they induce. This was carried out by staining H1299 cells with 7AAD dye that stains non-viable cells (with damaged membrane) and NucView-488 dye for caspase 3/7 activity as they are activated during apoptosis. Imaging and analysis protocols for H1299 were established earlier, and cells were imaged using automated microscopy and then analyzed using Cellpose and CellProfiler.
To analyze cell death mechanisms, we stained cells NucView 488 (Biotium, Fremont, CA, USA) probe for caspase 3 and 7 activity, 1 ug/mL of non-permeable DNA dye 7-AAD (BioinnLabs, Russia), and stain for labile Fe2+ HMRhoNox-M (Lumiprobe, Russia). Cells were treated with drugs for 72 h and then stained for 30 min with 2 uM NucView 488 and 2 uM HMRhoNox-M at 37 °C. Then, cells were washed once in DMEM with low autofluorescence, then 1 ug/mL 7-AAD was added, and cells were imaged using Leica DMI8 automated microscope. […] HMRhoNox-M signal was analyzed as mean fluorescence intensity per cell. Experiments were repeated two independent times, and 4 random images were recorded each time.

[19] = system: H1299 cells; experiment: Mitochondrial membrane potential, TMRE in H1299 cells; type: cell-based; settings: H1299, 72 h
Experimental: as §1

[20] = system: H1299 cells; experiment: Labile Fe2+ levels, HMRhoNox-M in H1299 cells; type: cell-based; settings: H1299, 72 h
Experimental: To analyze cell death mechanisms, we stained cells NucView 488 (Biotium, Fremont, CA, USA) probe for caspase 3 and 7 activity, 1 ug/mL of non-permeable DNA dye 7-AAD (BioinnLabs, Russia), and stain for labile Fe2+ HMRhoNox-M (Lumiprobe, Russia). Cells were treated with drugs for 72 h and then stained for 30 min with 2 uM NucView 488 and 2 uM HMRhoNox-M at 37 °C. Then, cells were washed once in DMEM with low autofluorescence, then 1 ug/mL 7-AAD was added, and cells were imaged using Leica DMI8 automated microscope. Fluorescent imaging was performed using 10x objective with the following parameters: for Hoechst-33342 excitation 325–375 nm and emission 435–485 nm, NucView 488 460–500/512–542 nm, HMRho-Nox-M 541–551/565–605 nm, and 7-AAD 590–650/662–738 nm. Cells were segmented using images in bright field with cyto3 model from Cellpose and then processed in CellProfiler. 7-AAD and NucView 488 images were used to segment nuclei of necrotic or apoptotic cells in CellProfiler. If a cell contained nucleus stained with NucView 488, it was considered as apoptotic, and if it contained a nucleus stained only with 7-AAD, it was considered as necrotic. HMRhoNox-M signal was analyzed as mean fluorescence intensity per cell. Experiments were repeated two independent times, and 4 random images were recorded each time.

[21] = system: A549 cells; experiment: Intracellular ROS assay, DCFH2-DA in A549 cells; type: cell-based; settings: A549, 10 µM, 72 h
Description: As cell death is often triggered by increased production of reactive oxygen species (ROS), the next step was to evaluate if our compounds act as pro-oxidants. ROS production was accessed using cell-permeable redox sensitive DCFH2-DA dye. […] As one of the main sites of ROS production is mitochondria, we also evaluated their membrane potential during treatment with either DO11-46 or DO11-48. […] Lysosome activation often accompany late stages of apoptosis, which is in good accordance with our data on the induction of caspase3/7 activity.
Pro-oxidant activity of the compounds was studied by quantification of ROS production using a cell-permeable fluorogenic probe 2′,7′-dichlorodihydrofluorescein diacetate (DCFH2-DA). A549 cells were seeded on a 48-well plate at a density of 10,000 cells/well. Twenty-four hours later, the compounds were added to 10 µM concentration in quadruplicate, and the cells were kept for 72 h. As a positive control, A549 cells were treated with 1 mM H2O2 for 2 h prior analysis. Then, media were replaced with the fresh FBS-lacking DMEM supplemented with 25 µM DCFH2-DA. After 45 min incubation, the cells were washed 10 times with 500 µL PBS, resuspended in 200 µL PBS and transferred to a black 96-well plate. The fluorescence intensities (FLIs) were measured using CHAMELEON V microplate reader with excitation at 485 nm and emission at 535 nm.

[22] = system: A549; settings: read-out: IC50 against A549; cited from earlier work
[23] = read-out: Extracellular HBV DNA (Δlog10)
[24] = read-out: Intracellular Total HBV RNA (Δlog10)

Row | Compound | IC50 [2] [µM] | IC50 [3] [µM] | log reduction at 1 µM [4, 23] | log reduction at 10 µM [4, 23] | log reduction at 1 µM [4, 24] | log reduction at 10 µM [4, 24] | IC50 [5] [µM] | SARS-CoV-2 Δlgmax [6] | IC50 [6] [µM] | Influenza A Virus Δlgmax [7] | IC50 [8] [µM] | IC50 [10] [µM] | CC50 at 66 h [11] [µM] | IC50 [12] [µM] | IC50 [13] [µM] | IC50 [14] [µM] | IC50 [15] [µM] | IC50 [16] [µM] | also measured
1 | CC(=O)C(=NNc1ccc2c(=O)cc(-c3ccccc3)oc2c1)N1CCCCC1 [11a, 7-[2-(2-oxo-1-(piperidin-1-yl)propylidene)hydrazinyl]-2-phenyl-4H-chromen-4-one] | – | – | – | – | – | – | – | – | – | – | – | – | – | – | – | – | – | – | IC50 against K562 [1]: 2.56 ± 0.57 mg/L (≈ 6.57 µM)
2 | COc1cccc(NC(=O)CSc2nc(N3CCNCC3)c3c(c2C#N)CC(C)(C)OC3)c1 [DO11-47, 2-[(5-Cyano-3,3-dimethyl-8-piperazin-1-yl-3,4-dihydro-1H-pyrano[3,4-c]pyridin-6-yl)thio]-N-(3-methoxyphenyl)acetamide] | 39.3 ± 16.9 | 36.7 ± 18.2 | < 0.5 | < 0.5 | < 0.5 | < 0.5 | > 60 | 0 | > 38 | 0 | 10 ± 2.9 | > 60 | 810 | 67.8 ± 5.8 | > 60 | 12.8 ± 4.2 | > 60 | 437 ± 14.8 | expression of Nrf2, NQO1, HO-1, GCLC, and GCLM genes [9]: increase was not statistically significant; IC50 (µM) HepaRG [16]: almost non-toxic
3 | COc1ccccc1NC(=O)CSc1nc(N2CCNCC2)c2c(c1C#N)CC(C)(C)OC2 [DO11-48, 2-[(5-Cyano-3,3-dimethyl-8-piperazin-1-yl-3,4-dihydro-1H-pyrano[3,4-c]pyridin-6-yl)thio]-N-(2-methoxyphenyl)acetamide] | 2.2 ± 0.6 | 18.1 ± 5.1 | < 0.5 | < 0.5 | < 0.5 | < 0.5 | > 3.75 | 0 | > 10 | 0 | 2.5 ± 1.2 | > 3.75 | 830 | 3.5 ± 0.7 | > 3.75 | 0.5 ± 0.1 | > 3.75 | 10.9 ± 1.6 | accumulation of lysosomes [17]: induced the accumulation of lysosomes; number of apoptotic and necrotic cells [18]: increased the number of apoptotic and necrotic cells; mitochondrial membrane potential [19]: neither of them caused mitochondrial dysfunction; levels of Fe2+ ions [20]: did not affect; ROS generation [21]: significantly increased ROS generation
4 | CC(=O)CN1CCN(c2ccc(C(=O)C=Cc3ccc(N(C)C)cc3)cc2)CC1 [dimethylamino-4’-[N-(2-oxopropyl)-1-piperazinyl]chalcone] | – | – | – | – | – | – | – | – | – | – | – | – | – | – | – | – | – | – | IC50 [22]: 0.19 µM
